Measurements: paper PMC9481563, “Structural insights into the pSer/pThr dependent regulation of the SHP2 tyrosine phosphatase in insulin and CD28 signaling” (Nature Communications, 2022)

How the values were obtained:
Type in all cases: binding
Details in all cases: competitive FP titration vs CF-ppIRS1 100 nM, protein fixed, unlabelled peptide varied; n = 3 technical replicates
[1] = target: T1, SHP2 catalytic domain (219–528), C459S, wild-type (inactive) (Homo sapiens, UniProt Q06124, C459S); assay: Fluorescence polarization titrations, inactive SHP2 catalytic domain
T1 construct: SHP2 catalytic domains (219–528 with or without C459S) were sub-cloned into pBH4 vectors; His6 (N); made in house; host or cells: E. coli BL21 (DE3)
T1 sequence (Q06124 219-528 C459S): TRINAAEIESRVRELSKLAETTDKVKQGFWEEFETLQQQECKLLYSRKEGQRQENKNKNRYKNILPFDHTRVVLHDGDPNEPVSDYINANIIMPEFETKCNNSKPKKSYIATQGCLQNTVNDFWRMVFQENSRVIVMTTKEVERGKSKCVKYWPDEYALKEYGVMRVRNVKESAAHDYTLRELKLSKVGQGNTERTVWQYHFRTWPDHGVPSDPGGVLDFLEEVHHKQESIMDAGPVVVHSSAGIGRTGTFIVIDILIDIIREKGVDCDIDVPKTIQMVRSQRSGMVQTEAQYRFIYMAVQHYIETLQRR
Source text: (§1) The two SH2 domains of PI3KR1 (UniProt P27986; nSH2: 321−433 cSH2: 614–724) were cloned from HEK293T cDNA pool, and subsequently ligated into a modified pET vector encoding maltose binding protein (MBP) tag on the N-terminal and a hexa-His tag on the C-terminal end of the construct. Similarly, the catalytic, tyrosine phosphatase domains of PTPRε (P23469 first domain: 107–399) and PTP1B (P18031; 1–229) were cloned from a HEK293T cDNA pool, and inserted into a pBH4 vector encoding an N-terminal His6 tag (for the final binding experiments, an MBP-tagged version of PTPRε was employed). […] Wild-type C-terminal FLAG-tagged human IRS1 was cloned between HindIII-NotI sites of pcDNA3.1(+) vector (#V79020 Invitrogen, Waltham MA USA). Ser/Ala mutant IRS1 was generated by replacing the region of S616/S636/S666/S736 positions with a cassette carrying S616A/S636A/S666A/S736A mutations. All constructs were validated by complete Sanger sequencing before protein expression and purification. The oligonucleotide sequences used are shown on Supplementary table 4.
(§2) Fluorescence polarization was always measured in triplicates, on black Corning low volume round bottom 384-well plates (with 10 ul volumes), using a BioTek Cytatation 5 reader, with the green fluorescent protein (GFP) cube filter set (ex: 485/20, em: 528/20, gain: 50, height: 7.5). Fluorescence polarization data was evaluated on Origin 2018. The dissociation constants (Kd) were determined by using the appropriate quadratic and cubic equations inserted as a user-defined function and applying nonlinear fit until convergence. The fitting formulae are shown at Supplementary note 1. Kd ratio distributions for Fig. 6 were calculated using a Monte-Carlo approach (Supplementary note 2).
(§3) Supplementary note 1. Curve fitting of fluorescence polarization (FP) measurements.
(§4) To evaluate polarization values from direct and competitive titrations, we used the following fitting formulae in Origin 2018, as detailed below.
(§5) Direct titration curves were fitted according to the following formula: […]
(§6) Where Imin is the minimal anisotropy, Imax is the (asymptotically estimated) maximal intensity. K0 is the starting concentration of the protein, while T0 is the (fixed) concentration of the labelled peptide and Kd is the dissociation constant.
(§7) Competitive titration curves were fitted with a different formula (In addition to those defined above, constants KdT KdB B0 T0 and D0 here refer to the Kd derived from the direct titration, the unknown Kd of the analyte, the labelled peptide concentration, the competitor peptide concentration as well as the protein concentration, respectively).
(§8) The ± sign refers to two different scenarios, depending on the sign of discriminant (KdT > KdB or […]). For unknown analytes, the choice of sign is not arbitrary, as the fitting will not converge unless the appropriate formula is chosen: […]
(§9) Where A, B and C correspond to the following expressions: […]

[2] = target: T2, PTPRε first phosphatase domain, C335S (Homo sapiens, UniProt P23469, C335S); assay: biochemical
T2 construct: PTPRε (P23469 first domain: 107–399); MBP; made in house; host or cells: E. coli BL21 (DE3)
Source text: as §1, §2, §3, §4, §5, §6, §7, §8, §9

[3] = target: T3, PTP1B catalytic domain, C215S (Homo sapiens, UniProt P18031, C215S); assay: biochemical
T3 sequence (P18031 1-229 C215S): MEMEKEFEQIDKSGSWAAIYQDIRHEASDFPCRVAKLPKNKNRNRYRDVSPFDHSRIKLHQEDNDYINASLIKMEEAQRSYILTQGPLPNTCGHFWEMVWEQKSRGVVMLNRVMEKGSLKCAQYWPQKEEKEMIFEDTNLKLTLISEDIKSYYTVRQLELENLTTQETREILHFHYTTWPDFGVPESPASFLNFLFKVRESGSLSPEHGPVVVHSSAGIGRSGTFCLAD
Source text: as §1, §2, §3, §4, §5, §6, §7, §8, §9

T2 sequence (P23469 107-399 C335S): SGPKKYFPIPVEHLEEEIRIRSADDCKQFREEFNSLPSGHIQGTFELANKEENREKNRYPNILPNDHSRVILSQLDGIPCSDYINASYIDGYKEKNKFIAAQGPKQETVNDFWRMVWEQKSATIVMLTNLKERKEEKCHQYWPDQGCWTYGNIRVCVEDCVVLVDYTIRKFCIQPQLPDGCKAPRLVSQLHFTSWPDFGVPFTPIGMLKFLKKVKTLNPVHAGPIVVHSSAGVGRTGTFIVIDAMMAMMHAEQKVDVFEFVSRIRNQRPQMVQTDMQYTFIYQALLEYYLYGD

CSCC[C@H](NC(=O)[C@H](Cc1ccc(OP(=O)(O)O)cc1)NC(=O)[C@H](CC(=O)O)NC(=O)[C@H](CO)NC(=O)[C@H](Cc1c[nH]cn1)NC(=O)[C@H](CC(C)C)NC(=O)[C@H](CC(C)C)NC(=O)[C@H](CCCNC(=N)N)NC(=O)[C@H](CO)NC(=O)[C@@H](N)CCCNC(=N)N)C(=O)N[C@@H](CC(N)=O)C(=O)N[C@@H](CCSC)C(=O)N[C@H](C(=O)N1CCC[C@H]1C(=O)N[C@@H](CCCNC(=N)N)C(=O)N[C@@H](CCCNC(=N)N)C(=O)O)[C@@H](C)O [p0CD28] was tested, and the Kd [1] was 39.7 ± 1.81 µM and the Kd [2] was 1.18 ± 0.1 µM.

CSCC[C@H](NC(=O)[C@@H]1CCCN1C(=O)[C@H](CCSC)NC(=O)[C@H](Cc1ccc(OP(=O)(O)O)cc1)NC(=O)[C@H](CC(=O)O)NC(=O)CNC(=O)[C@H](CO)NC(=O)CNC(=O)[C@H](CCCCN)NC(=O)[C@H](CCCNC(=N)N)NC(=O)CN)C(=O)N[C@@H](CO)C(=O)N1CCC[C@H]1C(=O)N[C@@H](CCCCN)C(=O)N[C@@H](CO)C(=O)O [p0IRS1] was tested, and the Kd [1] was 255 ± 34.9 µM, the Kd [3] was 1.14 ± 0.0851 µM and the Kd [2] was 36 ± 2.44 µM.

Compound CC[C@H](C)[C@H](NC(=O)[C@H](CC(N)=O)NC(=O)[C@@H](NC(=O)[C@H](Cc1ccc(OP(=O)(O)O)cc1)NC(=O)[C@H](CCC(=O)O)NC(=O)CNC(=O)[C@@H]1CCCN1C(=O)[C@H](CO)NC(=O)[C@H](CCCCN)NC(=O)[C@@H]1CCCN1C(=O)[C@@H](N)CCC(=O)O)C(C)C)C(=O)N[C@@H](CCC(=O)O)C(=O)N[C@@H](Cc1ccccc1)C(=O)O [p0SRev-IRS1] has a Kd [1] of 8.4 ± 0.75 µM.

CSCC[C@H](NC(=O)[C@H](Cc1ccc(OP(=O)(O)O)cc1)NC(=O)[C@H](CC(=O)O)NC(=O)[C@H](CO)NC(=O)[C@H](Cc1c[nH]cn1)NC(=O)[C@H](CC(C)C)NC(=O)[C@H](CC(C)C)NC(=O)[C@H](CCCNC(=N)N)NC(=O)[C@H](CO)NC(=O)[C@@H](N)CCCNC(=N)N)C(=O)N[C@@H](CC(N)=O)C(=O)N[C@@H](CCSC)C(=O)N[C@H](C(=O)N1CCC[C@H]1C(=O)N[C@@H](CCCNC(=N)N)C(=O)N[C@@H](CCCNC(=N)N)C(=O)O)[C@@H](C)OP(=O)(O)O [ppCD28] gave a Kd [1] of 5.66 ± 0.29 µM and a Kd [2] of 1.24 ± 0.08 µM.

CSCC[C@H](NC(=O)[C@@H]1CCCN1C(=O)[C@H](CCSC)NC(=O)[C@H](Cc1ccc(OP(=O)(O)O)cc1)NC(=O)[C@H](CC(=O)O)NC(=O)CNC(=O)[C@H](CO)NC(=O)CNC(=O)[C@H](CCCCN)NC(=O)[C@H](CCCNC(=N)N)NC(=O)CN)C(=O)N[C@@H](COP(=O)(O)O)C(=O)N1CCC[C@H]1C(=O)N[C@@H](CCCCN)C(=O)N[C@@H](CO)C(=O)O [ppIRS1] gave a Kd [1] of 5.25 ± 0.3 µM, a Kd [3] of 0.0613 ± 0.0102 µM and a Kd [2] of 16.5 ± 1.7 µM.

Work on CC[C@H](C)[C@H](NC(=O)[C@H](CC(N)=O)NC(=O)[C@@H](NC(=O)[C@H](Cc1ccc(OP(=O)(O)O)cc1)NC(=O)[C@H](CCC(=O)O)NC(=O)CNC(=O)[C@@H]1CCCN1C(=O)[C@H](COP(=O)(O)O)NC(=O)[C@H](CCCCN)NC(=O)[C@@H]1CCCN1C(=O)[C@@H](N)CCC(=O)O)C(C)C)C(=O)N[C@@H](CCC(=O)O)C(=O)N[C@@H](Cc1ccccc1)C(=O)O [ppSRev-IRS1] yielded a Kd [1] of 0.72 ± 0.06 µM.
